Results: publication PMC10961402, “Safety, tolerability, pharmacokinetics and pharmacokinetic-pharmacodynamic modeling of cetagliptin in patients with type 2 diabetes mellitus” (Frontiers in Endocrinology, 2024)

Assays:
plasma active GLP-1 = assay: Plasma active GLP-1 concentration change from baseline (ELISA); assay type: in vivo, human; conditions: patients with T2DM; for GLP-1 Baseline (value before dosing): day 1 before dosing; for increase of plasma active GLP-1 AUEC0-24h compared with placebo group: after multiple dosing; for △GLP-1 TRmax,ss / △GLP-1 TRmax: median (range)
Experimental: Blood samples for GLP-1 activity evaluation were collected at the same time points as for PK. 2 mL blood samples were collected for GLP-1 activity detection (20 μL DPP-4i was added to blood-collecting tubes beforehand). The tubes were placed on ice until centrifugation. The blood samples were centrifuged at 2-8°C, 1500 g for 10 minutes within 1 hour after blood collection. After centrifugation, the blood samples were evenly divided into two aliquots and stored at -80 ± 10°C. Plasma active GLP-1 concentrations were determined using a validated ELISA method. Linear calibration curves were obtained in the concentration range of 0.017-276 pM ([31]).
The change of GLP-1 concentration from baseline (△GLP-1) was calculated as follows:
Δ [GLP-1] = [GLP-1] (t) - [GLP-1] (0)
The calculated parameters for GLP-1 activity were as follows: the baseline GLP-1 value before dosing (Baseline), Rmax, TRmax, AUEC0-t, AUEC0-24h, GLP-1 concentration change at 2 h after lunch (△GLP-1-6h), GLP-1 concentration change at 2 h after dinner (△GLP-1-12h), Rmin on day 14, and the average response on day 14 (Ravg).

plasma DPP-4 activity = target: T1, plasma DPP-4 activity (Homo sapiens, UniProt P27487); assay: Emax model of plasma concentration vs DPP-4 inhibition; assay type: in vivo; conditions: patients with T2DM
T1 construct: The plasma DPP-4 activity was determined using a fluorescent method with the substrate Gly-Pro-7-amide-4-methylcoumarin; from tissue; host or cells: human plasma (K2-EDTA blood from T2DM patients)
T1 sequence (P27487 39-766 limits assumed): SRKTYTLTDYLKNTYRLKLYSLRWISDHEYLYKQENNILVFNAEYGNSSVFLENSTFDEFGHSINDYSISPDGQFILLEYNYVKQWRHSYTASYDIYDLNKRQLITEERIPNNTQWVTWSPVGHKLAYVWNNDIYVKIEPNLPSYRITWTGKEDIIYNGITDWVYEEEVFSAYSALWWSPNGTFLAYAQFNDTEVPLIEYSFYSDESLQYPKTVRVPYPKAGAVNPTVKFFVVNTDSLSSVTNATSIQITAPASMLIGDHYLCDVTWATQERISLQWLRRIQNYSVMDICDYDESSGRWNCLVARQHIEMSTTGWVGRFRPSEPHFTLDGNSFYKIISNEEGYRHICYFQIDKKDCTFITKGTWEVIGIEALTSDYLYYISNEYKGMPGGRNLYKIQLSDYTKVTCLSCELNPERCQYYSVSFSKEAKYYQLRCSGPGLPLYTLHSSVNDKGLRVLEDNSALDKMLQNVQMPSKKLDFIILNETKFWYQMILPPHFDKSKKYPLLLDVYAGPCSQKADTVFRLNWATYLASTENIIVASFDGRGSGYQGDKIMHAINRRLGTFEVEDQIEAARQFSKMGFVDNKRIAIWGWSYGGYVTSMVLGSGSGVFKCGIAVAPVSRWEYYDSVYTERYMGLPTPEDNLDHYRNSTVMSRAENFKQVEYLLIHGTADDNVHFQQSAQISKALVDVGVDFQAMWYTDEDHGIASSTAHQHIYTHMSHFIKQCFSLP

[1] = Plasma pharmacokinetics after single and multiple oral doses (non-compartmental analysis); assay type: in vivo, human; conditions: patients with T2DM; for Tmax,ss / Tmax: median (range)
Experimental: This was a single-center, randomized, double-blind, placebo and positive-controlled, single and multiple oral-dose study. A total of 32 Chinese adults diagnosed with T2DM were recruited for this study and allocated into two dosage groups: 50 mg and 100 mg, each consisting of 16 participants. […] The positive control was designed as open label. […] Subjects underwent medication randomization on day -1, and were assigned the corresponding investigational products. They were orally administered to the drug once every morning on fasting condition for 14 consecutive days. […] After finished the dosing, another OGTT was performed on day 15. Blood samples were collected at designated time points for the analysis of PK/PD and exploratory indicators. Subjects were discharged after completion of the safety assessments on day 19. […] PK parameters were calculated using non-compartmental analysis with Phoenix WinNonlin (version 8.1, Certara, Co., Princeton, NJ, United States). Peak plasma concentration after administration (Cmax) and time to reach Cmax (Tmax) were obtained directly from the observed data, elimination half-life (t1/2) was calculated as ln2/λz using the best fit mode, where λz was the terminal elimination rate constant. Area under the plasma concentration-time curve from zero to the last measurable concentration (AUC0-t) was estimated using the linear trapezoidal method and AUC from zero to infinity (AUC0-∞) was calculated as AUC0-t+Ct/λz, where Ct was the last measured concentration. […] Apparent total plasma clearance after non-intravenous (CL/F) and apparent volume of distribution in terminal phase after non-intravenous (Vz/F) were calculated as Dose/AUC0-∞ and CL/λz, respectively.

[2] = 50 mg oral once daily, day 14, listed as cetagliptin
[3] = 100 mg oral once daily, day 14, listed as cetagliptin
[4] = 50 mg oral once daily, listed as cetagliptin
[5] = 100 mg oral once daily, listed as cetagliptin

EC50 (plasma concentration producing half the maximum DPP-4 inhibition) (plasma DPP-4 activity; Emax model): 5.37 ng/mL
Emax (maximum DPP-4 inhibition, Emax model) (plasma DPP-4 activity; plasma concentration vs DPP-4 inhibition): 92.47%
RAUC (accumulation ratio of AUC0-24h, day 14/day 1) ([1]; 50 mg oral once daily): 2.13 ± 0.225
RCmax (accumulation ratio of Cmax, day 14/day 1) ([1]; 50 mg oral once daily): 2.01 ± 0.417
AUC0-24h ([1]; 50 mg oral once daily, day 14): 1530 ± 274 ng·h/mL
AUC0-∞ ([1]; 50 mg oral once daily, day 14): 2710 ± 577 ng·h/mL
AUC(0-t) ([1]; 50 mg oral once daily, day 14): 2510 ± 512 ng·h/mL
CLss/F ([1]; 50 mg oral once daily, day 14): 33.6 ± 5.86 L/h
Cavg ([1]; 50 mg oral once daily, day 14): 63.9 ± 11.4 ng/mL
Cmax,ss ([1]; 50 mg oral once daily, day 14): 162 ± 58.1 ng/mL
Vz,ss/F ([1]; 50 mg oral once daily, day 14): 2010 ± 610 L
t1/2 ([1]; 50 mg oral once daily, day 14): 41.9 ± 11.0 h
CLss/F [1, 2]: 33.6 L/h
Tmax,ss ([1]; 50 mg oral once daily, day 14): 1.00 (0.500-5.00) h
RAUC (accumulation ratio of AUC0-24h, day 14/day 1) [1, 4]: 2.13
RCmax (accumulation ratio of Cmax, day 14/day 1) [1, 4]: 2.01
AUC0-24h ([1]; 50 mg oral, day 1): 717 ± 86.0 ng·h/mL
Cmax ([1]; 50 mg oral, day 1): 80.5 ± 23.3 ng/mL
Tmax ([1]; 50 mg oral, day 1): 2.00 (1.00-4.00) h
RAUC (accumulation ratio of AUC0-24h, day 14/day 1) ([1]; 100 mg oral once daily): 1.75 ± 0.305
RCmax (accumulation ratio of Cmax, day 14/day 1) ([1]; 100 mg oral once daily): 1.49 ± 0.542
AUC0-24h ([1]; 100 mg oral once daily, day 14): 3120 ± 263 ng·h/mL
AUC0-∞ ([1]; 100 mg oral once daily, day 14): 4780 ± 361 ng·h/mL
AUC(0-t) ([1]; 100 mg oral once daily, day 14): 4580 ± 356 ng·h/mL
CLss/F ([1]; 100 mg oral once daily, day 14): 32.2 ± 2.57 L/h
Cavg ([1]; 100 mg oral once daily, day 14): 130 ± 11.0 ng/mL
Cmax,ss ([1]; 100 mg oral once daily, day 14): 300 ± 46.9 ng/mL
Vz,ss/F ([1]; 100 mg oral once daily, day 14): 1640 ± 628 L
t1/2 ([1]; 100 mg oral once daily, day 14): 34.9 ± 12.3 h
CLss/F [1, 3]: 32.2 L/h
Tmax,ss ([1]; 100 mg oral once daily, day 14): 1.00 (0.500-3.00) h
RAUC (accumulation ratio of AUC0-24h, day 14/day 1) [1, 5]: 1.75
RCmax (accumulation ratio of Cmax, day 14/day 1) [1, 5]: 1.49
AUC0-24h ([1]; 100 mg oral, day 1): 1830 ± 347 ng·h/mL
Cmax ([1]; 100 mg oral, day 1): 219 ± 72.3 ng/mL
Tmax ([1]; 100 mg oral, day 1): 1.00 (1.00-3.00) h
mean t1/2 (half-life) ([1]; multiple oral doses, range over 50 mg and 100 mg groups): 34.9 to 41.9 h
time of daily dosing after which steady-state conditions were reached ([1]; once daily dosing, trough concentrations days 7, 10, 14): 1 week
SMILES: C[C@@H]1c2cnc(C(F)(F)F)n2CCN1C(=O)C[C@H](N)Cc1cc(F)c(F)cc1F.O=P(O)(O)O [Cetagliptin, cetagliptin]
GLP-1 Baseline (value before dosing) (plasma active GLP-1; 50 mg group): 0.491 ± 0.815 pM
accumulation ratios of Rmax and AUEC0-24 h for plasma active GLP-1 (plasma active GLP-1; 50 mg once daily): about 1.5
increase of plasma active GLP-1 AUEC0-24h compared with placebo group (plasma active GLP-1; 50 mg once daily): 2.20 fold
R0h,ss (baseline plasma active GLP-1 on day 14) (plasma active GLP-1; 50 mg oral once daily, day 14): 1.787 ± 1.046 pM
△GLP-1-6h (change at 2 h after lunch) (plasma active GLP-1; 50 mg oral once daily, day 14): 4.145 ± 0.920 pM
△GLP-1-12h (change at 2 h after dinner) (plasma active GLP-1; 50 mg oral once daily, day 14): 3.880 ± 1.641 pM
△GLP-1 AUEC0-24h (plasma active GLP-1; 50 mg oral once daily, day 14): 57.8 ± 22.7 pM·h
△GLP-1 Ravg,ss (plasma active GLP-1; 50 mg oral once daily, day 14): 2.408 ± 0.944 pM
△GLP-1 Rmax,ss (plasma active GLP-1; 50 mg oral once daily, day 14): 5.891 ± 1.692 pM
R0h,ss (baseline plasma active GLP-1 on day 14) (plasma active GLP-1; [2]): 1.787 pM
△GLP-1 TRmax,ss (plasma active GLP-1; 50 mg oral once daily, day 14): 5.00 (5.00-12.00) h
△GLP-1-6h (change at 2 h after lunch) (plasma active GLP-1; 50 mg oral, day 1): 2.457 ± 1.135 pM
△GLP-1-12h (change at 2 h after dinner) (plasma active GLP-1; 50 mg oral, day 1): 2.887 ± 0.981 pM
△GLP-1 AUEC0-24h (plasma active GLP-1; 50 mg oral, day 1): 42.6 ± 10.0 pM·h
△GLP-1 Rmax (plasma active GLP-1; 50 mg oral, day 1): 3.866 ± 1.031 pM
△GLP-1 TRmax (plasma active GLP-1; 50 mg oral, day 1): 5.00 (5.00-12.00) h
GLP-1 Baseline (value before dosing) (plasma active GLP-1; 100 mg group): 0.434 ± 0.393 pM
accumulation ratios of Rmax and AUEC0-24 h for plasma active GLP-1 (plasma active GLP-1; 100 mg once daily): about 1.5
increase of plasma active GLP-1 AUEC0-24h compared with placebo group (plasma active GLP-1; 100 mg once daily): 3.36 fold
R0h,ss (baseline plasma active GLP-1 on day 14) (plasma active GLP-1; 100 mg oral once daily, day 14): 1.858 ± 1.186 pM
△GLP-1-6h (change at 2 h after lunch) (plasma active GLP-1; 100 mg oral once daily, day 14): 7.006 ± 3.171 pM
△GLP-1-12h (change at 2 h after dinner) (plasma active GLP-1; 100 mg oral once daily, day 14): 5.648 ± 1.810 pM
△GLP-1 AUEC0-24h (plasma active GLP-1; 100 mg oral once daily, day 14): 88.2 ± 29.6 pM·h
△GLP-1 Ravg,ss (plasma active GLP-1; 100 mg oral once daily, day 14): 3.673 ± 1.234 pM
△GLP-1 Rmax,ss (plasma active GLP-1; 100 mg oral once daily, day 14): 7.868 ± 2.565 pM
R0h,ss (baseline plasma active GLP-1 on day 14) (plasma active GLP-1; [3]): 1.858 pM
△GLP-1 TRmax,ss (plasma active GLP-1; 100 mg oral once daily, day 14): 6.00 (5.00-12.00) h
△GLP-1-6h (change at 2 h after lunch) (plasma active GLP-1; 100 mg oral, day 1): 4.269 ± 2.232 pM
△GLP-1-12h (change at 2 h after dinner) (plasma active GLP-1; 100 mg oral, day 1): 3.600 ± 2.410 pM
△GLP-1 AUEC0-24h (plasma active GLP-1; 100 mg oral, day 1): 63.1 ± 34.3 pM·h
△GLP-1 Rmax (plasma active GLP-1; 100 mg oral, day 1): 6.026 ± 3.823 pM
△GLP-1 TRmax (plasma active GLP-1; 100 mg oral, day 1): 5.00 (5.00-12.00) h
